Reference: patent US20260138978A1, “POSITIVE ALLOSTERIC MODULATORS OF THE MUSCARINIC ACETYLCHOLINE RECEPTOR M1” (Vanderbilt University, priority 2022, published 2026)

Key:
[1] = target: T1, human mAChRM1 (Homo sapiens, UniProt P11229); assay: mAChR M1 cell-based functional assay (calcium mobilization), agonist activity upon compound addition, Emax relative to acetylcholine maximum; settings: for EC50: calcium mobilization upon compound addition; for Emax: relative to the maximum for acetylcholine
T1 construct: host or cells: CHO-K1
T1 sequence (P11229 1-460): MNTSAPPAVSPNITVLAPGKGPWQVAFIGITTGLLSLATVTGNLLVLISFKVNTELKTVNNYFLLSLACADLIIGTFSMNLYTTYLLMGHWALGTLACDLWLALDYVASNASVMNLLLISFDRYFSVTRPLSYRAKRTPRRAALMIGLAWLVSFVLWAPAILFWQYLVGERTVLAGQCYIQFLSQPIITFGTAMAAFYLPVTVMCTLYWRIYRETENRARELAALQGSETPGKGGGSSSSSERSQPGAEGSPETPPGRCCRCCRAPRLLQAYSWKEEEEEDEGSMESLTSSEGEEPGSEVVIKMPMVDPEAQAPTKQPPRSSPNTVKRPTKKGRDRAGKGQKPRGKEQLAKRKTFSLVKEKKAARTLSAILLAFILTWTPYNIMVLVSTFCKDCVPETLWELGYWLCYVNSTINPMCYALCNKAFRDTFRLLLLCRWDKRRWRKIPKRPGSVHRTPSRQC
Description: Lack of agonist activity may be measured as weak or no increase in calcium fluorescence in mAChRM1-transfected CHO-K1 cells in the presence of the compound, compared to the response of equivalent CHO-K1 cells in the absence of the compound. Lack of mAChRM1 agonist activity may be determined as a percent response relative to acetylcholine. For example, a disclosed compound may have less than or equal to 30%, 25%, 20%, 15%, 10%, 5%, or 1% mAChRM1 agonist activity relative to acetylcholine. A disclosed compound may have substantially no mAChRM1 agonist activity. […] The absence of mAChRM1 agonist activity may contribute to the avoidance of cholinergic adverse effect liability.
(§1) Chinese hamster ovary (CHO-K1) cells stably expressing rat (r)M1 were purchased from the American Type Culture Collection and cultured according to their indicated protocol. CHO cells stably expressing human (h)M2, hM3, and hM5 were described previously (Levey, et al., 1991); hM1 and hM4 cDNAs were purchased from Missouri S&T cDNA Resource; rM4 cDNA was provided by T. I. Bonner (National Institutes of Health, Bethesda, MD). rM2 and rM3 were cloned from a rat brain cDNA library and sequence verified. hM1, rM2, rM3, hM4, and rM4 cDNAs were used to stably transfect CHO-K1 cells purchased from the American Type Culture Collection using Lipofectamine 2000. To make stable rM2, hM2, rM3, hM4. and rM4 cell lines for use in calcium mobilization assays, these cells also were stably transfected with a chimeric G-protein (Gqi5) (provided by B. R. Conklin, University of California, San Francisco) using Lipofectamine 2000. rM1, hM1, rM3, hM3, rM5, and hM5 cells were grown in Ham's F-12 medium containing 10% heat-inactivated fetal bovine serum (FBS), 20 mM HEPES, and 50 μg/mL G418 sulfate. rM2-Gqi5, hM2-Gqi5, and hM4-Gqi5 cells were grown in the same medium also containing 500 µg/mL Hygromycin B. Stable rM4-Gqi5 cells were grown in DMEM containing 10% heat-inactivated FBS, 20 mM HEPES, 400 μg/mL G418 sulfate, and 500 μg/mL Hygromycin B.
(§2) For high throughput measurement of agonist-evoked increases in intracellular calcium, CHO-K1 cells stably expressing muscarinic receptors were plated in growth medium lacking G418 and hygromycin at 15,000 cells/[…] in Greiner 384-well black-walled, tissue culture (TC)-treated, clear-bottom plates (VWR). Cells were incubated overnight at 37° C. and 5% CO2. The next day, cells were washed using an ELX 405 (BioTek) with four washes (80 μL) of assay buffer then aspirated to 20 μL. Next, 20 μL of 16 μM Fluo-4/acetoxymethyl ester (Invitrogen, Carlsbad, CA) prepared as a 2.3 mM stock in DMSO and mixed in a 1:1 ratio with 10% (w/v) Pluronic F-127 and diluted in assay buffer was added to the wells and the cell plates were incubated for 50 min at 37° C. and 5% CO2. Dye was removed by washing with the ELX 405 (four 80 μL washes of assay buffer) then aspirated to 20 μL. Compound master plates were formatted in an 11 point CR^c format (1:3 dilutions) in 100% DMSO with a starting concentration of 10 mM using the BRAVO liquid handler (Agilent). Test compound CRCs were then transferred to daughter plates (240 nL) using the Echo acoustic plate reformatter (Labcyte, Sunnyvale, CA) and then diluted into assay buffer ([…]) to a 2× stock using a Thermo Fisher Combi (Thermo Fisher Scientific, Waltham, MA).
Calcium flux was measured using the Functional Drug Screening System (FDSS) 6000 (Hamamatsu Corporation, Tokyo, Japan) as an increase in the fluorescent static ratio. Compounds were applied to cells (20 μL, 2×) using the automated system of the FDSS 6000 at 4 s into the 300 s protocol and the data were collected at 1 Hz. […] Agonist activity was analyzed as a concentration-dependent increase in calcium mobilization upon compound addition. Emax values for agonist activity are expressed relative to the maximum for acetylcholine. Positive allosteric modulator activity was analyzed as a concentration-dependent increase in the EC20 acetylcholine response. […]

[2] = target: T1, human mAChRM1; assay: mAChR M1 cell-based functional assay (calcium mobilization), positive allosteric modulator activity: increase in the EC20 acetylcholine response; settings: for Emax: PAM mode; for EC50: increase in the EC20 acetylcholine response, read-out: PAM Activity Human M1 EC50
Description: as §1, §2
Calcium flux was measured using the Functional Drug Screening System (FDSS) 6000 (Hamamatsu Corporation, Tokyo, Japan) as an increase in the fluorescent static ratio. Compounds were applied to cells (20 μL, 2×) using the automated system of the FDSS 6000 at 4 s into the 300 s protocol and the data were collected at 1 Hz. […] Agonist activity was analyzed as a concentration-dependent increase in calcium mobilization upon compound addition. Emax values for agonist activity are expressed relative to the maximum for acetylcholine. Positive allosteric modulator activity was analyzed as a concentration-dependent increase in the EC20 acetylcholine response. Antagonist activity was analyzed as a concentration-dependent decrease in the EC80 acetylcholine response. Concentration-response curves were generated using a four-parameter logistical equation in XLfit curve fitting software (IDBS, Bridgewater, NJ) for Excel (Microsoft, Redmond, WA) or Prism (GraphPad Software, Inc., San Diego, CA).
Activity (EC50 and Emax) was determined in the mAChRM1 cell-based functional assay as described above and the data are shown in Table 16. The compound numbers correspond to the compound numbers used in Table 15.

| Compound | EC50 [1] [nM] | Emax [1] [%] | Emax [2] [%] | EC50 [2] [nM] |
| --- | --- | --- | --- | --- |
| [2H]C([2H])([2H])n1cc2c(-c3cc(C)c(CN4Cc5ncccc5C4=O)c(F)c3)ccc(C(C)(C)O)c2n1 (single isomer, unassigned) [Compound 15, 6-(2-fluoro-4-(7-(2-hydroxypropan-2-yl)-2-(methyl-d3)-2H-indazol-4-yl)-6-methylbenzyl)-6,7-dihydro-5H-pyrrolo[3,4-b]pyridin-5-one] | 2990 | 41 | 77 | 81 |
| [2H]C1([2H])c2ncccc2C(=O)N1Cc1c(F)cc(-c2ccc(C(C)(C)O)c3nn(C)cc23)cc1C1CC1 (single isomer, unassigned) [Compound 143, 6-(2-cyclopropyl-6-fluoro-4-(7-(2-hydroxypropan-2-yl)-2-methyl-2H-indazol-4-yl)benzyl)-6,7-dihydro-5H-pyrrolo[3,4-b]pyridin-5-one-7,7-d2] | 5300 | 68 | 83 | 96 |
| [2H]C1([2H])c2ncccc2C(=O)N1Cc1c(C)cc(-c2ccc(C(C)(C)O)c3nn(C)cc23)cc1F (single isomer, unassigned) [Compound 144, 6-(2-fluoro-4-(7-(2-hydroxypropan-2-yl)-2-methyl-2H-indazol-4-yl)-6-methylbenzyl)-6,7-dihydro-5H-pyrrolo[3,4-b]pyridin-5-one-7,7-d2] | 5570 | 58 | 89 | 101 |
| [2H]C1([2H])c2ncccc2C(=O)N1Cc1c(C)cc(-c2ccc(C(C)(C)O)c3nn(C([2H])([2H])[2H])cc23)cc1F (single isomer, unassigned) [Compound 146, 6-(2-fluoro-4-(7-(2-hydroxypropan-2-yl)-2-(methyl-d3)-2H-indazol-4-yl)-6-methylbenzyl)-6,7-dihydro-5H-pyrrolo[3,4-b]pyridin-5one-7,7-d2] | ≥ 10000 | 28 | 65 | 120 |
| [2H]C1([2H])c2ncccc2C(=O)N1Cc1c(F)cc(-c2ccc(C(C)(C)O)c3nn(C([2H])([2H])[2H])cc23)cc1C1CC1 (single isomer, unassigned) [Compound 147, 6-(2-cyclopropyl-6-fluoro-4-(7-(2-hydroxypropan-2-yl)-2-(methyl-d3)-2H-indazol-4-yl)benzyl)-6,7-dihydro-5H-pyrrolo[3,4-b]pyridin-5-one-7,7-d2] | 6190 | 43 | 62 | 74 |
| Cc1cc(-c2ccc(C(C)(C)O)cc2)cc(F)c1CN1Cc2cccnc2C1=O [Compound 118, 6-((3-fluoro-4′-(2-hydroxypropan-2-yl)-5-methyl-[1,1′-biphenyl]-4-yl)methyl)-5,6-dihydro-7H-pyrrolo[3,4-b]pyridin-7-one] | – | – | 67 | 1650 |

Stronger by EC50 [2], values ahead:

| EC50 [1] [nM] | Emax [1] [%] | Emax [2] [%] | EC50 [2] [nM] | Compound |
| --- | --- | --- | --- | --- |
| 2060 | 54 | 78 | 66 | [2H]C([2H])([2H])n1cc2c(-c3cc(F)c(CN4Cc5ncccc5C4=O)c(C4CC4)c3)ccc(C(C)(C)O)c2n1 (single isomer, unassigned) [Compound 16, 6-(2-cyclopropyl-6-fluoro-4-(7-(2-hydroxypropan-2-yl)-2-(methyl-d3)-2H-indazol-4-yl)benzyl)-6,7-dihydro-5H-pyrrolo[3,4-b]pyridin-5-one] |
| 2740 | 22 | 78 | 59 | Cn1cc2c(-c3cc(F)c(CN4Cc5ncccc5C4=O)c(F)c3)ccc(C(C)(C)O)c2n1 [Compound 1, 6-(2,6-difluoro-4-(7-(2-hydroxypropan-2-yl)-2-methyl-2H-indazol-4-yl)benzyl)-6,7-dihydro-5H-pyrrolo[3,4-b]pyridin-5-one] |
| 8350 | 33 | 87 | 65 | Cc1cc(-c2ccc(C(C)(C)O)c3nn(C)cc23)cc(F)c1CN1Cc2ncccc2C1=O [Compound 2, 6-(2-Fluoro-4-(7-(2-hydroxypropan-2-yl)-2-methyl-2H-indazol-4-yl)-6-methylbenzyl)-6,7-dihydro-5H-pyrrolo[3,4-b]pyridin-5-one] |
